Source: PubChem BioAssay (NCI)
Where “and” joins values, the source holds several entries; their conditions need not be identical. Equal values may be shown once.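 Following 48 hours of exposure in 96-well plates, responses at five concentrations were used to interpolate endpoints linearly. The concentration for 50% growth inhibition is given as GI50. TGI marks complete inhibition of growth.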

Columns and labels:
Assay in all cases: growth of human tumour cells (NCI), 48 h
[1] = test system: BT-549 breast
[2] = test system: DU-145 prostate
[3] = test system: MDA-MB-231 breast
[4] = test system: DMS 114 small cell lung
[5] = test system: HOP-18 NSCLC
[6] = test system: KM20L2 colon
[7] = test system: M19-MEL melanoma
[8] = test system: MDA-N

| Structure (SMILES) | GI50 [1] [µM] | TGI [1] | GI50 [2] [µM] | TGI [2] | GI50 [3] [µM] | TGI [3] | further results |
| --- | --- | --- | --- | --- | --- | --- | --- |
| COc1ccc2c(c1)c(-c1ccc(-c3cn(C)c4ccc(OC)cc34)o1)cn2C | 5.11 | 18.2 µM | > 100 | > 100 µM | 2.37 | 22.2 µM | – |
| CC(=O)OC1(C#N)CC2OC1C1N=NN(C(=O)OC(C)(C)C)C21 (stereo unspecified) | – | – | – | – | – | – | TGI [4]: > 74.9 µM; TGI [5]: > 100 µM; TGI [6]: > 100 µM; TGI [7]: > 100 µM |
| COc1cc2c(cc1OC)-c1ncc3cc(OC)c(OC)c(OC)c3c1C2 | 2.94 | 7.56 µM | 21.7 | > 100 µM | 2.54 | 48.7 µM | – |
| CCC(=O)Nc1ncnc2ncn(C(=O)CC)c12 | – | > 100 µM | – | > 100 µM | – | > 100 µM | TGI [8]: > 100 µM |
| C=C1C(=O)O[C@H]2[C@H]1CC/C(Cn1cc(-c3ccsc3)nn1)=C\CC[C@@]1(C)O[C@@H]21 | 1.8 | 5.21 µM | 1.43 | 2.88 µM | 1.75 | 3.61 µM | – |
| Cc1ccc(-c2cc(=O)c3cc(C)c(C)c(C(=O)O)c3o2)cc1[N+](=O)[O-] | – | – | – | – | – | – | TGI [4]: > 100 µM; TGI [5]: > 100 µM; TGI [6]: > 100 µM; TGI [7]: > 100 µM |
| COc1cccc(NC(=O)c2ccc(NC3=C(Cl)C(=O)N(Cc4ccccc4)C3=O)cc2)c1 | 13.8 | 33.8 µM | 19 | 38.6 µM | 16.7 | 36.1 µM | – |
| CCCCCCC(O)C(O)CCC(O)C1CCC(CCCCC(O)CC2=CC(C)OC2=O)O1 (stereo unspecified) | – | 66.8 µM | – | – | 18.5 | 6.4 µM and 46.9 µM | GI50 [8]: 12.3 µM; TGI [8]: 29.1 µM |
| CCC(C)(C)NS(=O)(=O)c1ccccc1 | – | – | – | – | – | – | TGI [4]: > 100 µM; TGI [6]: > 100 µM; TGI [7]: > 100 µM |
| CCCC(=O)Nc1c(I)cc(I)c(CC(CC)C(=O)O)c1I (stereo unspecified) | > 100 | > 100 µM | > 100 | > 100 µM | > 100 | > 100 µM | – |
| C=C(C)[C@@H]1CC[C@]2(CN)CC[C@]3(C)[C@H](CC[C@@H]4[C@@]5(C)CCC(N)[C@@](C)(CO)[C@@H]5CC[C@]43C)[C@@H]12 (stereo partly specified) | 1.66 | 3.2 µM | 1.66 | 3.17 µM | 1.84 | 3.32 µM | – |
| CC(C)C1NC(=O)[C@H](C)OC(=O)[C@@H](C(C)C)NC(=O)[C@@H](C)OC(=O)C(C(C)C)NC(=O)[C@H](C)OC1=O (stereo partly specified) | – | – | – | – | – | – | TGI [4]: > 100 µM; TGI [5]: > 100 µM; TGI [6]: > 100 µM; TGI [7]: > 100 µM |
| CC(=O)Oc1cc(Cl)c(OC(C)=O)c2c(OC(C)=O)c(C)c(O[Si](C)(C)C(C)(C)C)cc12 | – | – | – | – | – | – | TGI [4]: 15.1 µM; TGI [6]: 32.1 µM |
| CC(C)c1cc(C(=O)[O-])c(O)c(C(C)C)c1.CC(C)c1cc(C(=O)[O-])c(O)c(C(C)C)c1.CC(C)c1cc(C(=O)[O-])c(O)c(C(C)C)c1.CC(C)c1cc(C(=O)[O-])c(O)c(C(C)C)c1.CC(C)c1cc(C(=O)[O-])c(O)c(C(C)C)c1.CC(C)c1cc(C(=O)[O-])c(O)c(C(C)C)c1.[Cu+2].[Mn+2].[Mn+2] | – | – | – | – | – | – | GI50 [4]: 17.8 µM; TGI [4]: 34.6 µM; GI50 [5]: 13.3 µM; TGI [5]: 29.1 µM; GI50 [6]: 26.1 µM; TGI [6]: > 100 µM; GI50 [7]: 5.67 µM; TGI [7]: 18.7 µM |
| COc1ccc(C[C@H]2NC[C@H](O)[C@H]2OC(C)=O)cc1 | – | 1.91 µM | – | 0.27 µM | – | 0.079 µM | TGI [8]: 0.195 µM |
| COC(=O)CCCNC(=O)C(=O)c1c(O)c(O)c(C(C)C)c2cc(C)c(-c3c(C)cc4c(C(C)C)c(O)c(O)c(C(=O)C(=O)NCCCC(=O)OC)c4c3O)c(O)c12 | 1.19 | 7.28 µM | 0.556 | 3.74 µM | 0.743 | 2.99 µM | – |
| CCOC(=O)c1csc(-c2nc(CCNC(=O)c3ccccc3)sc2Cl)n1 | – | > 100 µM | – | > 100 µM | – | – | TGI [8]: > 100 µM |
| NC(N)=NC(N)=Nc1ccc(S(N)(=O)=O)cc1 | – | > 100 µM | – | > 100 µM | – | > 100 µM | TGI [8]: > 100 µM |
| COc1ccc(-c2cc(-c3ccc(Cl)cc3)nc(SCCCCCCC(=O)NO)n2)cc1 | 2.16 | 14 µM | 1.76 | 15.4 µM | 1.74 | 8.89 µM | – |
| CC(C)=CCc1c(O)c(C(=O)CC(C)C)c(O)c2c(-c3ccccc3)cc(=O)oc12 | 7.31 | > 50 µM | 15.5 | > 50 µM | 8.26 | 22 µM | – |
| CC(CCC(=O)O)c1ccc(Br)cc1 (stereo unspecified) | – | – | – | – | – | – | TGI [4]: > 100 µM; TGI [5]: > 100 µM; TGI [6]: > 100 µM; TGI [7]: > 100 µM |
| Clc1ccc(COC(Cn2ccnc2)c2ccc(Cl)cc2Cl)c(Cl)c1 (stereo unspecified) | 4.7 | 16 µM and 30.4 µM | 11.3 | 23.5 µM and 29.6 µM and 25.6 µM | 2.15 | 12.9 µM and 26.2 µM and 24.6 µM | TGI [8]: 17.5 µM and 15.6 µM |
| COc1cc(=O)oc(/C=C/C=C/C=C/C(C)=C\C2(C)OC(C)C(C)(O)C2O)c1C (stereo unspecified) | – | > 100 µM | – | > 100 µM | – | > 100 µM | TGI [8]: > 100 µM |
| COC(=O)[C@H](Cc1cn(C)cn1)NC(=O)[C@@H](NC(=O)Nc1cc(C(F)(F)F)cc(C(F)(F)F)c1)C(C)(C)C | > 10 | > 10 µM | > 10 | > 10 µM | > 10 | > 10 µM | – |
| O=C1CCC(N2C(=O)c3cccc(NCCOCCOCCNC(=O)c4cc5c(o4)C(=O)c4ccccc4C5=O)c3C2=O)C(=O)N1 (stereo unspecified) | 1.47 | 2.84 µM | 1.82 | 3.25 µM | 2.29 | 7.31 µM | – |
| NC(Cc1c[nH]c2cc(F)ccc12)C(=O)O (stereo unspecified) | 841 | > 2500 µM | 903 | > 2500 µM | 1460 | > 2500 µM | – |
| COc1ccc(/C=C2\CCc3ccccc3C2=O)cc1OC | – | – | – | – | – | – | TGI [4]: 47.1 µM; TGI [5]: > 100 µM; TGI [6]: > 100 µM; TGI [7]: > 100 µM |
| COCC(=O)NC/C=C/c1ccc2ncnc(Nc3ccc(Oc4ccc(C)nc4)c(C)c3)c2c1 | 6.81 | 24.9 µM | 9.54 | > 100 µM | 12.7 | 36.1 µM | – |
| N#CC(C(=O)O)C(c1c(Cl)cccc1Cl)C(C#N)C(=O)O (stereo unspecified) | – | > 100 µM | – | > 100 µM | – | > 100 µM | TGI [8]: > 100 µM |
